Test results taken from patent publication US20230372492A1, “DRUGS CONJUGATED WITH HEXOSE PHOSPHATE AND METHODS OF MAKING AND USING SAME” (MISSISSIPPI STATE UNIVERSITY, priority 2020, published 2023).
In brackets after ≈: the same amount, converted by molar mass. Several values for one entry are separate records, joined by “and”; a condition that tells them apart may be missing. Equal entries are not always repeated. Where two headings read alike, the source gives them in different places.

Tests used:
[1] = system: fosfomycin resistant UTI E. coli isolates harboring the fosA gene; test: Growth in BHI broth with fosfomycin, with or without 3FG6P; assay type: cell-based, Escherichia coli
From the text: (§1) FIGS. 13A to 13D show a comparison of the antimicrobial activity of fosfomycin alone (FIG. 13A) and fosfomycin conjugated with 3FG6P or 4FG6P (FIG. 13B) against a fosfomycin resistant E. coli clinical isolate, and fosfomycin alone (FIG. 13C) and fosfomycin conjugated with 3FG6P or 4FG6P (FIG. 13D) against an S. aureus COL strain. The key in FIG. 13D applies to all graphs of FIGS. 13A-13D.
(§2) To test whether 3FG6P and 4FG6P can potentiate the efficacy of fosfomycin, clinical fosfomycin resistant UTI E. coli isolates harboring the fosA gene and S. aureus COL strain were obtained. Overnight cultures of these bacteria were grown in brain heart infusion (BHI) broth diluted to 0.5 McFarland turbidity and inoculated into fresh BHI broth supplemented with various concentrations of fosfomycin alone or fosfomycin supplemented with 3FG6P for E. coli or 4FG6P for S. aureus (50 μM).

Enterobacteriaceae = conditions: cited from earlier work
S. aureus COL strain = test: Growth in BHI broth with fosfomycin, with or without 4FG6P; assay type: cell-based, Staphylococcus aureus
From the text: as §1, §2

[2] = cited from earlier work
[3] = system: bioluminescent E. coli strain; test: Mouse urinary tract infection with bioluminescent E. coli; assay type: in vivo, C57BL/6 mice; conditions: 80 mg/kg intraperitoneal at 2, 24 and 48 hours; 72 hours after infection
Experimental: C57BL/6 mice were transurethrally inoculated with bioluminescent E. coli strain and treated with PBS, linezolid (80 mg/kg), and linezolid conjugated with 3FG6P (80 mg/kg) at 2, 24, and 48 hours after inoculation. 72 hours after inoculation, the progress of the infection was monitored using a IVIS Lumina XR small animal imaging system and the bacterial burden in the kidney and bladder was determined by a plate counting method.
To test the in vivo antimicrobial activity of linezolid and linezolid conjugated with 3FG6P, clinical E. coli strains were constructed that constitutively express a bioluminescent light signal using pLuxABCDE plasmid. See Karsi A. Lawrence M L. Broad host range fluorescence and bioluminescence expression vectors for Gram-negative bacteria. Plasmid. 2007; 57(3):286-95. Epub 2007/01/09. doi: 10.1016/j.plasmid.2006.11.002. PubMed PMID: 17207855 for real time monitoring of the progress of infections. Six- to eight-week old female C57BL/6 mice were purchased from Harlan laboratory and were housed and maintained according to the protocol approved by the institutional animal care and use committee at Mississippi State University. Animals (n=6/group) were transurethrally infected with 50 μl of bioluminescent E. coli strain suspended in PBS (2×10^9 CFU/ml). Animals were treated with an intraperitoneal injection of linezolid (80 mg/kg), linezolid conjugated with 3FG6P (80 mg/kg) or PBS control at 2, 24, and 48 hours after infection. The progress of the infection was monitored by measuring the bioluminescent light signal using an IVIS Lumina X R small animal imaging system. After 72 hours infection, animals were humanely euthanized and the bladder and kidney samples were collected, homogenized, and serially diluted, and the serial dilutions were plated on blood agar to determine the bacterial burden. A transurethral inoculation of E. coli established persistent infections in the kidney and bladder in the absence of antibiotic treatment (PBS control group). The mean bacterial counts in the kidney and bladder were log10 6.328±0.132 and log10 6.171+0.155 CFU/g, respectively (FIG. 12).

[4] = system: Enterobacter cloacae ATCC 13047; test: MIC by broth microdilution (CLSI M07-A9); assay type: cell-based; conditions: Muller Hinton broth, 37° C.
Experimental: (§3) To test the antimicrobial activity of linezolid and linezolid conjugated with 3FG6P (Lzd-3FG6P) against Gram-positive and Gram-negative pathogens, the pathogens Staphylococcus aureus ATCC 25923, Klebsiella pneumoniae ATCC 35657, Acinetobacter baumannii ATCC BAA1605, Escherichia coli ATCC 25922, Enterobacter cloacae ATCC 13047, Enterobacter aerogenes ATCC13048, and Salmonella typhimurium ATCC 14028 were used. The minimal inhibitory concentration (MIC) was determined using broth microdilution following the instructions of Clinical and Laboratory Standards Institute (CLSI) document M07-A9 (Clinical and Laboratory Standards Institute. 2012. M07-A9. Methods for dilution antimicrobial susceptibility tests for bacteria that grow aerobically: approved standard. 9th ed. Clinical and Laboratory Standards Institute, Wayne, PA). Briefly, these bacterial strains were grown in Muller Hinton broth (MHB) until exponential phage (OD600<1.0). The exponentially grown testing bacteria were diluted to an OD600 of 0.01 in MHB and aliquoted in a 96 well plate. Stocks of linezolid (Lzd) and linezolid conjugated with 3FG6P (Lzd-3FG6P) were prepared at 10 mg/ml in DMSO which was diluted by two-fold serial dilutions from 64 μg/ml to 2 μg/ml (final concentration) and added to the 96 well plate. A DMSO control (0 μg/ml in the figures) was included. The plate was incubated at 37° C. and the growth of bacteria was monitored by measuring OD600 using a Cytation 5 plate reader (BioTek).

[5] = system: Enterobacter aerogenes ATCC13048; test: MIC by broth microdilution (CLSI M07-A9); assay type: cell-based; conditions: Muller Hinton broth, 37° C.
Experimental: as §3

[6] = system: Acinetobacter baumannii ATCC BAA1605; test: MIC by broth microdilution (CLSI M07-A9); assay type: cell-based; conditions: Muller Hinton broth, 37° C.
Experimental: as §3

[7] = system: Staphylococcus aureus ATCC 25923; test: MIC by broth microdilution (CLSI M07-A9); assay type: cell-based; conditions: Muller Hinton broth, 37° C.
Experimental: as §3

[8] = system: Escherichia coli ATCC 25922; test: MIC by broth microdilution (CLSI M07-A9); assay type: cell-based; conditions: Muller Hinton broth, 37° C.
Experimental: as §3

[9] = system: Klebsiella pneumoniae ATCC 35657; test: MIC by broth microdilution (CLSI M07-A9); assay type: cell-based; conditions: Muller Hinton broth, 37° C.
Experimental: as §3

[10] = system: Salmonella typhimurium ATCC 14028; test: MIC by broth microdilution (CLSI M07-A9); assay type: cell-based; conditions: Muller Hinton broth, 37° C.
Experimental: as §3

[11] = system: Gram positive and Gram-negative pathogens; test: Broth microdilution growth inhibition, summary over all tested pathogens; assay type: cell-based
Experimental: as §3, with “Stocks of linezolid (Lzd) and linezolid conjugated with 3FG6P (Lzd-3FG6P) were prepared at 10 mg/ml in DMSO which was diluted by two-fold serial dilutions from 64 μg/ml to 2 μg/ml (final concentration) and added to the 96 well plate. A DMSO control (0 μg/ml in the figures) was included.” left out

Klebsiella pneumoniae = conditions: cited from earlier work
Neisseria gonorrhea = conditions: cited from earlier work
Proteus penneri = conditions: cited from earlier work
[12] = system: methicillin-resistant Staphylococcus aureus (MRSA); conditions: cited from earlier work
Escherichia coli = conditions: cited from earlier work
[13] = system: vancomycin-resistant Enterococcus (VRE)faecalis and faecium; conditions: cited from earlier work
Pseudomonas aeruginosa = conditions: cited from earlier work
[14] = system: Stenotrophomonas maltophilia; conditions: cited from earlier work
[15] = system: Staphylococcus epidermidis (MRSE); conditions: cited from earlier work
Acinetobacter spp = conditions: cited from earlier work
[16] = system: UhpT expression (HptARS system) in S. aureus LAC strain; test: uhpT promoter-LuxABCDE bioluminescent reporter for UhpT expression; assay type: cell-based, Staphylococcus aureus; conditions: 500 μM in brain heart infusion broth
Experimental: FIG. 5 illustrates a LuxABCDE reporter system for monitoring expression of the UhpT by measuring bioluminescent light signals and strong and stable induction of UhpT expression by 3FG6P. S. aureus LAC strain harboring the LuxABCDE reporter system was cultured in a brain heart infusion broth supplemented with 500 μM glucose (Glc), glucose-6-phosphate (G6P), and 3-fluoro-glucose-6-phosphate (3FG6P) and the bioluminescent signal was monitored using a Cytation 5.
To test whether 3FG6P can induce expression of the UhpT, we generated a bioluminescent reporter plasmid in which the promoter region of the uhpT was fused to the promoterless LuxABCDE operon (FIG. 5). See Francis K P, Joh D, Bellinger-Kawahara C, Hawkinson M J, Purchio T F, Contag P R. Monitoring bioluminescent Staphylococcus aureus infections in living mice using a novel luxABCDE construct. Infection and immunity. 2000; 68(6):3594-600. Epub 2000/05/19. PubMed PMID: 10816517; PMCID: PMC97648 and Karsi A, Lawrence M L. Broad host range fluorescence and bioluminescence expression vectors for Gram-negative bacteria. Plasmid. 2007; 57(3):286-95. Epub 2007/01/09. doi: 10.1016/j.plasmid.2006.11.002. PubMed PMID: 17207855 for monitoring of the expression of UhpT by measuring bioluminescent light signals.

[17] = BHI supplemented with 50 μM of 4FG6P

Question: Which results are given for `C[C@@H]1O[C@@H]1P(=O)(O)O` [fosfomycin]?
Answer: fosfomycin concentration at which growth was completely inhibited ([1]; BHI supplemented with 50 μM of 3FG6P): ≤ 2 µg/mL; fosfomycin concentration up to which growth was allowed ([1]; BHI, fosfomycin alone): up to 128 μg/ml; minimum inhibitory concentration (MIC) breakpoint (Enterobacteriaceae): 8 to 32 µg/mL; fosfomycin concentration at which growth was completely inhibited (S. aureus COL strain; [17]): 32 µg/mL; growth at fosfomycin concentrations lower than 32 μg/ml (S. aureus COL strain; [17]): significantly delayed; fosfomycin concentration up to which growth was allowed (S. aureus COL strain; BHI, fosfomycin alone): up to 128 μg/ml; metabolism in the liver ([2]; in vivo): not metabolized in the liver; oral bioavailability ([2]; oral administration): 30-37%

Question: Which results are given for `CC(=O)NC[C@H]1CN(c2ccc(N3CCN(C(=O)CCCOC4OC(COP(=O)(O)O)[C@@H](O)C(F)C4O)CC3)c(F)c2)C(=O)O1` (stereo partly shown) [Linezolid-3FG6P]?
Answer: bacterial counts in the bladder [3]: nearly completely cleared the infection; bacterial counts in the kidney [3]: completely cleared the infection; MIC ([4]; Enterobacter cloacae, ATCC13047, read-out: MIC): < 2 µg/mL; MIC ([5]; Klebsiella aerogenes, ATCC13048, read-out: MIC): 4 µg/mL (≈ 6 µM); MIC ([6]; Acinetobacter baumannii, ATCCBAA1605, read-out: MIC): < 2 µg/mL; MIC ([7]; Staphylococcus aureus, ATCC25923, read-out: MIC): < 2 µg/mL; MIC ([8]; Escherichia coli, ATCC25922, read-out: MIC): 4 µg/mL (≈ 6 µM); MIC ([9]; Klebsiella pneumoniae, ATCC35657, read-out: MIC): < 2 µg/mL; MIC ([10]; Salmonella enterica, read-out: MIC): 8 µg/mL (≈ 12 µM); concentration range inhibiting growth ([11]; both Gram positive and Gram-negative pathogens): 2 to 8 µg/mL

Question: Which antimicrobial activity (Klebsiella pneumoniae) does the source give for “(S)—N-[[3-[3-fluoro-4-(N-1-piperazinyl)phenyl]-2-oxo-5-oxazolidinyl]methyl]acetamide [Linezolid]” here?
Answer: The antimicrobial activity was “not active”.

Question: And the MIC90 (Neisseria gonorrhea)?
Answer: The MIC90 was 16 µg/mL.

Question: What about the antimicrobial activity (Proteus penneri) of the same molecule?
Answer: The antimicrobial activity was “not active”.

Question: And the MIC90 [12]?
Answer: The MIC90 was 1 to 4 µg/mL and 2 µg/mL.

Question: And the antimicrobial activity (Escherichia coli)?
Answer: Its antimicrobial activity is “not active”.

Question: And the MIC90 [13]?
Answer: The MIC90 was 1 to 4 µg/mL and 2 µg/mL.

Question: And the “bacterial counts in the bladder” value [3]?
Answer: The value was “did not reduce bacterial counts”.

Question: What about the “bacterial counts in the kidney” value [3] of the same molecule?
Answer: Its value is “did not reduce bacterial counts”.

Question: What about the antimicrobial activity (Pseudomonas aeruginosa) of the same molecule?
Answer: The antimicrobial activity was “not active”.

Question: And the antimicrobial activity [14]?
Answer: The antimicrobial activity was “not active”.

Question: And the MIC [4]?
Answer: The MIC was greater than 64 µg/mL.

Question: And the MIC [5]?
Answer: Its MIC is greater than 64 µg/mL.

Question: And the MIC [6]?
Answer: The MIC was greater than 64 µg/mL.

Question: What about the MIC [7] of the same molecule?
Answer: Its MIC is less than 2 µg/mL.

Question: And the MIC ([7]; listed as linezolid)?
Answer: Its MIC is “less than 2 μg/ml”.

Question: And the MIC [8]?
Answer: The MIC was greater than 64 µg/mL.

Question: What about the MIC [9] of the same molecule?
Answer: Its MIC is greater than 64 µg/mL.

Question: And the MIC [10]?
Answer: Its MIC is greater than 64 µg/mL.

Question: What about the “concentration failing to inhibit growth” value ([11]; Gram-negative pathogens) of the same molecule?
Answer: The value was 64 µg/mL.

Question: What about the MIC90 [15] of the same molecule?
Answer: The MIC90 was 1 to 4 µg/mL and 1 µg/mL.

Question: And the antimicrobial activity (Acinetobacter spp)?
Answer: Its antimicrobial activity is “not active”.

Question: With `O=C[C@H](O)[C@@H](O)[C@H](O)[C@H](O)COP(=O)(O)O` [glucose-6-phosphate] as the molecule, how does the “duration of induced bioluminescent light signals” value [16] read?
Answer: Its value is 8 h.
